We go through 18 molecules from US8114589B2, “Self-addressable self-assembling microelectronic integrated systems, component devices, mechanisms, methods, and procedures for molecular biological analysis and diagnostics” (Gamida For Life B.V., priority 1996, dated 2012).

Series [1] can be described thus: Buffer conductivity and pH measurements. The format is physicochemical. On the set-up: conductivity: unit not given here. The conditions noted are these: for conductivity: RT; for pH: in water at room temperature. Here is the method: Buffer Conductivity and pH Measurements—The conductivities of test buffer solutions utilized for transport and hybridization were measured at RT using an Accumet 1.0 cm^−1 glass conductivity cell connected to an Accumet Model 50 pH/Ion/Conductivity meter (Fisher Scientific). Buffer pH values were obtained using an Accu-pHast variable temperature combination electrode and the same model meter.

Series [2] concerns btrRCA5 to ATA5 capture oligonucleotide. The series is described as follows: Accumulation and electronic hybridization in test buffers. The following applies: for hybridization efficiency: [(specific hybridization)/(transported)] × 100; for transported: fluorescent signal at completion of electronic targeting; for transported / specific hybridization: value +/− SEM, 50 mM buffer; for support of sequence specific electronic hybridization: in words. Here is the method: Microelectronic Chips, Permeation Layer and Instrumentation—These have been described previously with the following exception. The permeation layer employed herein has an underlayer of agarose beneath the top streptavidin-containing agarose layer (approximately one micron in total thickness). To make the underlayer, […] glyoxal agarose (2%) was spun on at 2000 rpms for 20 sec prior to the application of the streptavidin-agarose layer. In brief, the 5580 series APEX chip used for these experiments consists of a 5×5 array of […] circular microelectrodes with […] microelectrodes at each corner of the array. Chips were mounted on a micromanipulator stage and the microelectrodes activated by a power supply and appropriately controlled relay switches. Fluorescently labeled oligonucleotides on the chip were visualized using oblique illumination with two 594 nm HeNe lasers and the images were quantified using either NIH Image or IPLab Spectrum software packages.
Accumulation and Hybridization—Two biotinylated capture oligonucleotides, ATA5 and ATA4 were electronically transported and localized at adjacent microelectrodes. The solution was removed and the chip washed 3-4× in test buffer. Buffers employed in these studies are listed in Table 3 and were utilized at the listed pH values and concentrations presented.
The L-isomers of amino acids were used, unless otherwise noted. The chip was equilibrated in test buffer for 5-10 min. Then fresh buffer containing 10 nM BODIPY-Texas Red labeled RCA5 (btrRCA5), an oligonucleotide complementary to ATA5 but not ATA4 (RS paper) was applied.
The […] microelectrodes were employed as cathodes and one microelectrode within the array used as the corresponding anode. Accumulation was assessed by sourcing a 500 nA constant current to individual microelectrodes for 30 sec and monitoring the accumulation of fluorescence at the positively-biased (anode) site in the microelectrode array. Signal arising from non-fluorescent sources (ie. thermal noise, etc.) was subtracted. Experiments examining the effect of different currents upon signal accumulation were conducted in a similar fashion except that the applied current varied from 100 nA to 1 mA. […] For the comparison between conductivities of various buffers, the data is presented as fold increase over initial fluorescence to account for chip-to-chip variation as well as laser illumination variations in signal levels. For other experiments, the data is presented as attomol product versus time, after converting^2 the observed fluorescence intensity to moles of labeled oligonucleotide.
Following accumulation at one microelectrode location, the buffer was removed and fresh buffer containing btrRCA5 applied. An adjacent microelectrode was then sourced in a similar fashion. Upon completion, the buffer was removed and the chip washed 5-7× with test buffer without btrRCA5. The pair of previously targeted microelectrodes were then illuminated and the fluorescence present at each site quantified. Control experiments utilized a bodipy-Texas Red labeled oligonucleotide complementary to ATA4 to verify the integrity and concentration of the ATA4 capture oligonucleotide. Percent hybridization efficiency was calculated as follows: (complementary oligonucleotide signal−noncomplementary signal)/(signal present immediately prior to the end of the applied current)×100.

For series [3] the following is noted: cited from earlier work; for pl: Table 3.
The nature of series [4]: Buffer capacity, pH and conductivity of buffers used on the APEX chip. The conditions noted are these: for PH: NaPO4: 20 mM adjusted to pH 7.4.
Series [5] can be described thus: Conductivity measurements of transport buffers. The format is physicochemical. The following applies: for Average/Std. Deviation / Measurement 1 / Measurement 2 / Measurement 3: conductivity.
A further series deals with DNA. The series is described as follows: DNA transport (accumulation) on the APEX chip. The conditions noted are these: in words, same field conditions.

Consider `NCCC(=O)N[C@@H](Cc1cnc[nH]1)C(=O)O` [carnosine], for which, in series [1] (50 mM), the conductivity was 74.5 +/− 5.5 and the pH is 8.07. Besides, in series [2], the hybridization efficiency is on record as 26.1, the transported is 129 +/− 45 and the specific hybridization is 33.7 +/− 12.1 attomol. In addition, the pl in series [3] is recorded as 8.17.
Take `Cn1cncc1C[C@H](N)C(=O)O` [1(π)-methylhistidine]: in series [1] (50 mM), the conductivity was 117 +/− 2.8 and the pH was 7.59. For the same molecule, in series [2], the hybridization efficiency turned out to be 21.3, the transported is 141 +/− 20 and the specific hybridization is on record as 30.0 +/− 5.0 attomol. In addition, the pl in series [3] is 7.54.
On to `N[C@H](Cc1c[nH]cn1)C(=O)O` [D-histidine], for which, in series [1] (50 mM), the conductivity was 57.1 +/− 0.3 and the pH turned out to be 7.70. In addition, in series [2], the hybridization efficiency came out at 24.3, the transported was 490 +/− 50 and the specific hybridization was 119 +/− 11.8 attomol. Further, in series [3], the pl is reported as 7.47.
`O=P(O)(O)O` [NaPO4, Sodium Phosphate]: in series [4], the conductivity is reported as 1,400.0 μS and the PH is 7.4. The molecule also gave a conductance in series [5] of roughly 2.9 mS/cm. Further, in series [5] (listed as 1 mM NaPO4), the “Average/Std. Deviation” value is on record as 128.7 +/− 7.0 μS/cm, the “Measurement 1” value was 122 μS/cm, the “Measurement 2” value turned out to be 128 μS/cm and the “Measurement 3” value is reported as 136 μS/cm. Besides, in series [5] (listed as 10 mM NaPO4), the “Average/Std. Deviation” value is recorded as 1.44 +/− 0.04 mS/cm, the “Measurement 1” value came out at 1.40 mS/cm, the “Measurement 2” value turned out to be 1.44 mS/cm and the “Measurement 3” value is reported as 1.48 mS/cm. Also, in series [5] (listed as 20 mM NaPO4), the “Average/Std. Deviation” value is recorded as 2.90 +/− 0.11 mS/cm, the “Measurement 1” value is reported as 2.90 mS/cm, the “Measurement 2” value was determined as 2.79 mS/cm and the “Measurement 3” value is recorded as 3.00 mS/cm. Besides, the transport result in the series on DNA is “fair transport”.
As to Tris-Borate [100 mM Tris-Borate], the conductivity in series [5] is 694 μS/cm.
Regarding `Cc1cc(C)nc(C)c1` [collidine], in series [2], the hybridization efficiency is recorded as 3.7, the transported is 382 +/− 63 and the specific hybridization is recorded as 14.1 +/− 4.6 attomol.
Consider `[Cl-].[Cl-].[Mg+2]` [10 mM MgCl2, MgCl2], for which, in series [5], the “Average/Std. Deviation” value is 2.03 +/− 0.09 mS/cm, the “Measurement 1” value came out at 1.95 mS/cm, the “Measurement 2” value was found to be 2.02 mS/cm and the “Measurement 3” value was 2.13 mS/cm. In series [5] (listed as 0.1 mM MgCl2), the “Average/Std. Deviation” value was 17.3 +/− 0.87 μS/cm, the “Measurement 1” value stood at 16.9 μS/cm, the “Measurement 2” value stood at 16.7 μS/cm and the “Measurement 3” value is recorded as 18.3 μS/cm. Further, in series [5] (listed as 1 mM MgCl2), the “Average/Std. Deviation” value is listed as 186 +/− 18.8 μS/cm, the “Measurement 1” value is given as 174 μS/cm, the “Measurement 2” value stood at 208 μS/cm and the “Measurement 3” value is 177 μS/cm.
Consider `N[C@@H](CCC(=O)O)C(=O)O` [glutamic acid], for which, in series [3], the pI is 3.22.
As to `N[C@@H](Cc1c[nH]cn1)C(=O)O` [L-histidine], in series [1] (50 mM), the conductivity is given as 60.1 +/− 0.1 and the pH worked out at 7.65. Further, in series [2], the “non-specific signal as compared to the amount of material transported” value was 2.2%, the hybridization efficiency came to 14.6, the transported is given as 533 +/− 65 and the specific hybridization is recorded as 78.0 +/− 9.1 attomol. In addition, the pl in series [3] is listed as 7.47.
On to `CC(=O)[O-].[Na+]` [10 mM NaAcetate], for which, in series [5], the “Average/Std. Deviation” value is on record as 934 +/− 43.5 μS/cm, the “Measurement 1” value was 901 μS/cm, the “Measurement 2” value amounted to 917 μS/cm and the “Measurement 3” value was found to be 983 μS/cm.
As to `[Cl-].[Na+]` [10 mM NaCl, NaCl], in series [5], the “Average/Std. Deviation” value is recorded as 1.12 +/− 0.057 mS/cm, the “Measurement 1” value is reported as 1.07 mS/cm, the “Measurement 2” value is reported as 1.10 mS/cm and the “Measurement 3” value was determined as 1.18 mS/cm. For the same molecule, in series [5] (listed as 0.1 mM NaCl), the “Average/Std. Deviation” value is listed as 9.43 +/− 0.93 μS/cm, the “Measurement 1” value came to 8.80 μS/cm, the “Measurement 2” value came out at 8.98 μS/cm and the “Measurement 3” value is on record as 10.5 μS/cm. Also, in series [5] (listed as 1 mM NaCl), the “Average/Std. Deviation” value is 112.7 +/− 2.08 μS/cm, the “Measurement 1” value is given as 112 μS/cm, the “Measurement 2” value is reported as 115 μS/cm and the “Measurement 3” value was determined as 111 μS/cm.
For the molecule `NCCC(=O)O` [β-Alanine], in series [1] (50 mM), the conductivity was 3.6 +/− 0.6 and the pH is listed as 6.71. In series [4], this molecule registered a conductivity of 10.0 μS and a PH of 7.3. Moreover, in series [2], the “support of sequence specific electronic hybridization” value is recorded as “neither GABA, b-alanine, nor glycine was capable of supporting sequence specific hybridization”. The transport result with DNA was “excellent transport”. Further, in series [3] (Table 2), the pK1 entry is listed as “pK1 - 3.6” and the pK2 result was “pK2 - 10.2”. For the same molecule, the pl in series [3] was 6.90.
Regarding `NCCS(=O)(=O)O` [Taurine], in series [4], the conductivity worked out at 4.5 μS and the PH is 4.6. The transport entry with DNA is given as “excellent transport”.
With `O=C([O-])C(=O)[O-].[Na+].[Na+]` [5 mM NaOxalate], in series [5], the “Average/Std. Deviation” value was 1.06 +/− 0.055 mS/cm, the “Measurement 1” value was determined as 1.02 mS/cm, the “Measurement 2” value stood at 1.03 mS/cm and the “Measurement 3” value is 1.12 mS/cm.
Regarding `c1ccncc1` [pyridine], in series [1] (50 mM), the conductivity is listed as 5.0 +/− 0.8 and the pH worked out at 8.17. Besides, in series [2], the transported is 764 +/− 66 and the specific hybridization is 12.8 +/− 4.2 attomol.
For `Cn1cnc(C[C@H](N)C(=O)O)c1` [3(τ)-methylhistidine], in series [1] (50 mM), the conductivity was 39.4 +/− 0.4 and the pH was found to be 7.44. In series [2], the hybridization efficiency is 20.8, the transported is recorded as 259 +/− 48 and the specific hybridization is reported as 54.0 +/− 14.8 attomol. Also, the pl in series [3] is 7.52.
As for `NC(CO)(CO)CO` [50 mM TRIS, TRIS], in series [5], the “Average/Std. Deviation” value was 3.35 +/− 0.19 mS/cm, the “Measurement 1” value was determined as 3.50 mS/cm, the “Measurement 2” value is reported as 3.14 mS/cm and the “Measurement 3” value was found to be 3.40 mS/cm. Moreover, in series [5] (listed as 10 mM TRIS), the “Average/Std. Deviation” value is listed as 572 +/− 10.5 μS/cm, the “Measurement 1” value is given as 572 μS/cm, the “Measurement 2” value is recorded as 562 μS/cm and the “Measurement 3” value is 583 μS/cm.
As for `NCC(=O)O` [glycine], in series [1] (50 mM), the conductivity is 2.5 +/− 0.2 and the pH stood at 6.01. Further, in series [1] (250 mM), the conductivity is recorded as 7.8 +/− 0.5 and the pH stood at 6.11. In series [2], the “support of sequence specific electronic hybridization” value is “neither GABA, b-alanine, nor glycine was capable of supporting sequence specific hybridization”. In series [3], the pl was 5.97.
